Experimental findings from patent US20100063020A1, “ORAL PHARMACEUTICAL FORMULATIONS AND METHODS FOR PRODUCING AND USING SAME” (priority 2004, published 2010) are described below.

A short description of one data set: in vitro. The class given is in vitro ADME. As to conditions: human, Caco-2. The text has this:
The permeability of the pharmaceutical active ingredient across the gastrointestinal membrane may be estimated from it permeability across a Caco-2 cell monolayer using standard techniques (e.g. Chong S et al. Pharmaceutical Research 1997 14(12):1835-1837). The reference is hereby expressly incorporated by reference.
Propranolol was included in each assay as a high permeability control compound.

Data set [1] can be described thus: Intrinsic dissolution of high melt and low melt forms of 17-AAG in ethanol. It counts as physicochemical. As to the method: The performance of an active pharmaceutical ingredient (i.e., dissolution rate) can be affected by polymorphic state. The intrinsic dissolution of the high melt and low melt forms of 17-AAG were determined in ethanol. Ethanol was chosen as the solvent since 17-AAG is soluble in ethanol.

A short description of data set [2]: Solvent stability of low melt form (slurry in H2O:EtOH 90:10). It counts as physicochemical. As to the method:
17-AAG may be prepared from geldanamycin by reacting with allyamine in dry THF under a nitrogen atmosphere. The crude product may be purified by slurrying in H2O:EtOH (90:10), and the washed crystals obtained have a melting point of 206-212° C. by capillary melting point technique. […] The two 17-AAG products are designated as the low melt form and high melt form.
MP=147-155° C. ^1 H NMR and HPLC are consistent with the desired product.

The Papp is a coefficient for how fast a substance crosses the barrier. The low end stands for poor permeation, the high end for ready permeation. Regarding `CC(C)NCC(O)COc1cccc2ccccc12` (centres unmarked) [propranolol], the Papp in “in vitro” was 16 ×10⁻⁶ cm/s.
As for `C=CCNC1=C2C[C@@H](C)C[C@H](OC)[C@H](O)[C@@H](C)/C=C(\C)[C@H](OC(N)=O)[C@@H](OC)/C=C\C=C(/C)C(=O)NC(=CC1=O)C2=O` [low melt form of 17-AAG, 17-allylamino-17-demethoxygeldanamycin], in data set [1], the intrinsic dissolution rate is listed as 0.885 mg/cm^2/min and the “percent higher intrinsic dissolution rate of low melt form vs high melt form” value was 60%. The “conversion of polymorphic form on slurrying” value in data set [2] is listed as “no conversion to the high melt form was observed”.
On to `C=CCNC1=C2C[C@@H](C)C[C@H](OC)[C@H](O)[C@@H](C)/C=C(\C)[C@H](OC(N)=O)[C@@H](OC)/C=C\C=C(/C)C(=O)NC(=CC1=O)C2=O` [high melt form, 17-allylamino-17-demethoxygeldanamycin], for which, in data set [1], the intrinsic dissolution rate was determined as 0.550 mg/cm^2/min.
